Laboratory results from ChEMBL document CHEMBL6092142, “Discovery and preclinical profile of YK-2168, a differentiated selective CDK9 inhibitor in clinical development” (Bioorg Med Chem Lett, 2024).
In brackets after ≈: the same amount, converted by molar mass. One block for each compound: values may come before it. Activity calls are given as the source filed them. No cut-off for these calls is given here.

Legend:
[1] = target: Cyclin-dependent kinase 1 (Homo sapiens, UniProt P06493); experiment: Inhibition of CDK1 (unknown origin)
[2] = target: Cyclin-dependent kinase 2 (Homo sapiens, UniProt P24941); experiment: Inhibition of CDK2 (unknown origin)
[3] = target: Cyclin-dependent kinase 9 (Homo sapiens, UniProt P50750); experiment: Inhibition of CDK9 (unknown origin)
[4] = Selectivity index, ratio of IC50 for inhibition of CDK1 (unknown origin) to IC50 for inhibition of CDK9 (unknown origin)
[5] = Selectivity index, ratio of IC50 for inhibition of CDK2 (unknown origin) to IC50 for inhibition of CDK9 (unknown origin)
[6] = test system: MV4-11; experiment: Antiproliferative activity against human MV4-11 cells assessed as cell viability; type: functional, cell-based
[7] = Aqueous solubility of compound at pH 4; type: physicochemical
[8] = Volume of distribution in CD-1 mouse at 2 mg/kg, iv; type: ADME, organism-based; conditions: CD-1, mouse, in vivo, read-out: Vd
[9] = Clearance in CD-1 mouse at 2 mg/kg, iv; type: ADME, organism-based; conditions: in vivo
[10] = Half life in CD-1 mouse at 2 mg/kg, iv; type: ADME, organism-based; conditions: CD-1, mouse, in vivo
[11] = AUC (0 to 24 hrs) in CD-1 mouse at 2 mg/kg, iv; type: ADME, organism-based; conditions: CD-1, mouse, in vivo
[12] = test system: MV4-11; experiment: Antitumor activity against human MV4-11 cells xenografted in mouse assessed as tumor growth inhibition at 10 mg/kg, iv measured upto 28 days; type: functional; conditions: MV4-11, 672 h, time <= 28 day, read-out: TGI
[13] = Toxicity in mouse assessed as change in body weight at 10 mg/kg, iv measured upto 28 days; type: organism-based; conditions: in vivo, 672 h, time < 28 day
[14] = test system: MV4-11; experiment: Antitumor activity against human MV4-11 cells xenografted in iv dosed mouse assessed as reduction in pol II CTD level in tumor measured upto 24 hrs by Western blot analysis; type: functional, organism-based; conditions: dose 5-15 mg/kg
[15] = test system: MV4-11; experiment: Antitumor activity against human MV4-11 cells xenografted in mouse assessed as reduction in MYC level in tumor at 5 to 15 mg/kg, iv measured upto 24 hrs by Western blot analysis; type: functional, organism-based; conditions: dose 5-15 mg/kg
[16] = test system: MV4-11; experiment: Antitumor activity against human MV4-11 cells xenografted in mouse assessed as reduction in Mcl1 level in tumor at 5 to 15 mg/kg, iv measured upto 24 hrs by Western blot analysis; type: functional, organism-based; conditions: dose 5-15 mg/kg
[17] = test system: MV4-11; experiment: Antitumor activity against human MV4-11 cells xenografted in mouse assessed as upregulation of caspase-3 level in tumor at 5 to 15 mg/kg, iv by Western blot analysis; type: functional, organism-based; conditions: dose 5-15 mg/kg, time <= 24.0 hrs
[18] = Plasma protein binding in human; type: ADME, cell-free; conditions: read-out: PPB (converted)
[19] = Permeability across apical to basolateral side in human Caco-2 cells; type: ADME, cell-based; conditions: read-out: permeability
[20] = Permeability across basolateral to apical side in human Caco-2 cells; type: ADME, cell-based; conditions: read-out: permeability
[21] = Efflux ratio of permeability basolateral to apical side over apical to basolateral side in human Caco-2 cells; type: ADME, cell-based
[22] = Metabolic stability in human hepatocytes assessed as half life; type: ADME, cell-based, Hepatocyte
[23] = Metabolic stability in monkey hepatocytes assessed as half life; type: ADME, cell-based, Macaca mulatta, Hepatocyte; conditions: rhesus monkey
[24] = Metabolic stability in dog hepatocytes assessed as half life; type: ADME, cell-based, Canis lupus familiaris, Hepatocyte
[25] = Metabolic stability in rat hepatocytes assessed as half life; type: ADME, cell-based, Hepatocyte
[26] = Metabolic stability in mouse hepatocytes assessed as half life; type: ADME, cell-based, Hepatocyte
[27] = target: T1, Cytochrome P450 3A4 (Homo sapiens, UniProt P08684); experiment: Inhibition of CYP3A4 (unknown origin); type: ADME
[28] = target: T2, Cytochrome P450 2D6 (Homo sapiens, UniProt P10635); experiment: Inhibition of CYP2D6 (unknown origin); type: ADME
[29] = target: T3, Cytochrome P450 2C19 (Homo sapiens, UniProt P33261); experiment: Inhibition of CYP2C19 (unknown origin); type: ADME
[30] = target: T4, Cytochrome P450 2C9 (Homo sapiens, UniProt P11712); experiment: Inhibition of CYP2C9 (unknown origin); type: ADME
[31] = target: T5, Cytochrome P450 2C8 (Homo sapiens, UniProt P10632); experiment: Inhibition of CYP2C8 (unknown origin); type: ADME
T5 sequence (P10632 whole entry): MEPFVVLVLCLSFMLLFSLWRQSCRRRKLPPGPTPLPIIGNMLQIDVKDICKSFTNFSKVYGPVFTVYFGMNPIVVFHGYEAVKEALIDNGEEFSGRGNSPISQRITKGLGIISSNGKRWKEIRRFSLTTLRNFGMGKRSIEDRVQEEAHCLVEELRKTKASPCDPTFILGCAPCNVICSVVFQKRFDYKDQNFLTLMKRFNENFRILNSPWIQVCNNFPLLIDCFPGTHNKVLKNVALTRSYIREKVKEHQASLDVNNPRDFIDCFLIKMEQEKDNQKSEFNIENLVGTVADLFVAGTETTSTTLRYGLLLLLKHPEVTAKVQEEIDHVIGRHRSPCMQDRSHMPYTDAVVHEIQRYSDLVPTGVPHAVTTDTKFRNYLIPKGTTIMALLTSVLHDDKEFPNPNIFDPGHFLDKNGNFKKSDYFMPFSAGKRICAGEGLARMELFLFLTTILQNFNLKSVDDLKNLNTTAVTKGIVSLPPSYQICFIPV

[32] = target: T6, Cytochrome P450 2B6 (Homo sapiens, UniProt P20813); experiment: Inhibition of CYP2B6 (unknown origin); type: ADME
T6 sequence (P20813 whole entry): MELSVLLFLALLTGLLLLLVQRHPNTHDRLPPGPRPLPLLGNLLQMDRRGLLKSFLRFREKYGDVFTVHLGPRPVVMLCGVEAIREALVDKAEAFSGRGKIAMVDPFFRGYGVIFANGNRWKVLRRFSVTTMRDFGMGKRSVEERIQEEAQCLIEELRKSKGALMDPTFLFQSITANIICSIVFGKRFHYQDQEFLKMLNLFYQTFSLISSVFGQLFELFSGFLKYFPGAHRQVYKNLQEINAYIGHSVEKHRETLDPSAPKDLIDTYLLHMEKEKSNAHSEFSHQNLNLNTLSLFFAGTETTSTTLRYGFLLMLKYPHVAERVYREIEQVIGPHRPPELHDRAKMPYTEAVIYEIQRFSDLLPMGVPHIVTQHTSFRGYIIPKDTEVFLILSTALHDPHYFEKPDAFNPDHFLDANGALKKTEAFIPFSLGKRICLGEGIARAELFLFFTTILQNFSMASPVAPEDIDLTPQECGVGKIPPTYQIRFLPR

[33] = target: T7, Cytochrome P450 1A2 (Homo sapiens, UniProt P05177); experiment: Inhibition of CYP1A2 (unknown origin); type: ADME
T7 sequence (P05177 whole entry): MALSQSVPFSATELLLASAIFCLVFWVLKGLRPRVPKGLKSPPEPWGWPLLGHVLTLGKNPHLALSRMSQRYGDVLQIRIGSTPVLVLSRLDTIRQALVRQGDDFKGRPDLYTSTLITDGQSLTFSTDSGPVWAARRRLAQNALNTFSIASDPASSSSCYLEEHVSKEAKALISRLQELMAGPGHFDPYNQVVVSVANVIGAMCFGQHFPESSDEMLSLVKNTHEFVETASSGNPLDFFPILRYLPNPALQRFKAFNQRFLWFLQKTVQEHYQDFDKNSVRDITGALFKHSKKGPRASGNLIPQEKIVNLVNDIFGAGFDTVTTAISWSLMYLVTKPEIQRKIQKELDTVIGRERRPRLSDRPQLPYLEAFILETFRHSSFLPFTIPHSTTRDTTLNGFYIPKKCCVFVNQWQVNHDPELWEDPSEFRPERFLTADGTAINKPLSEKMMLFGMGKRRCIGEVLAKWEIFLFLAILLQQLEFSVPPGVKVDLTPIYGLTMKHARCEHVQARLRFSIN

[34] = target: T1, Cytochrome P450 3A4; experiment: Time dependent inhibition of CYP3A4 (unknown origin); type: ADME
[35] = target: T4, Cytochrome P450 2C9; experiment: Time dependent inhibition of CYP2C9 (unknown origin); type: ADME
[36] = target: T3, Cytochrome P450 2C19; experiment: Time dependent inhibition of CYP2C19 (unknown origin); type: ADME
[37] = target: T2, Cytochrome P450 2D6; experiment: Time dependent inhibition of CYP2D6 (unknown origin); type: ADME
[38] = target: T5, Cytochrome P450 2C8; experiment: Time dependent inhibition of CYP2C8 (unknown origin); type: ADME
[39] = target: T7, Cytochrome P450 1A2; experiment: Time dependent inhibition of CYP1A2 (unknown origin); type: ADME
[40] = target: T1, Cytochrome P450 3A4; experiment: Induction of CYP3A4 (unknown origin); type: ADME
[41] = test system: SNU-16; experiment: Antitumor activity against human SNU-16 cells xenografted in iv dosed mouse assessed as tumor growth inhibition; type: functional, organism-based; conditions: dose 5-15 mg/kg
[42] = Volume of distribution in Sprague-Dawley rat at 4 mg/kg, iv; type: ADME, organism-based; conditions: in vivo
[43] = Volume of distribution in Beagle dog at 1 mg/kg, iv; type: ADME, organism-based, Canis lupus familiaris; conditions: in vivo
[44] = Clearance in Sprague-Dawley rat at 4 mg/kg, iv; type: ADME, organism-based; conditions: in vivo
[45] = Clearance in Beagle dog at 1 mg/kg, iv; type: ADME, organism-based, Canis lupus familiaris; conditions: in vivo
[46] = Half life in Sprague-Dawley rat at 4 mg/kg, iv; type: ADME, organism-based; conditions: in vivo
[47] = Half life in Beagle dog at 1 mg/kg, iv; type: ADME, organism-based, Canis lupus familiaris; conditions: in vivo
[48] = AUC (0 to 24 hrs) in Sprague-Dawley rat at 4 mg/kg, iv; type: ADME, organism-based; conditions: in vivo
[49] = AUC (0 to 24 hrs) in Beagle dog at 1 mg/kg, iv; type: ADME, organism-based, Canis lupus familiaris; conditions: in vivo
[50] = target: Voltage-gated inwardly rectifying potassium channel KCNH2 (Homo sapiens, UniProt Q12809); experiment: Inhibition of hERG upto 30 uM; type: toxicity
Sequence of Voltage-gated inwardly rectifying potassium channel KCNH2 (Q12809 whole entry): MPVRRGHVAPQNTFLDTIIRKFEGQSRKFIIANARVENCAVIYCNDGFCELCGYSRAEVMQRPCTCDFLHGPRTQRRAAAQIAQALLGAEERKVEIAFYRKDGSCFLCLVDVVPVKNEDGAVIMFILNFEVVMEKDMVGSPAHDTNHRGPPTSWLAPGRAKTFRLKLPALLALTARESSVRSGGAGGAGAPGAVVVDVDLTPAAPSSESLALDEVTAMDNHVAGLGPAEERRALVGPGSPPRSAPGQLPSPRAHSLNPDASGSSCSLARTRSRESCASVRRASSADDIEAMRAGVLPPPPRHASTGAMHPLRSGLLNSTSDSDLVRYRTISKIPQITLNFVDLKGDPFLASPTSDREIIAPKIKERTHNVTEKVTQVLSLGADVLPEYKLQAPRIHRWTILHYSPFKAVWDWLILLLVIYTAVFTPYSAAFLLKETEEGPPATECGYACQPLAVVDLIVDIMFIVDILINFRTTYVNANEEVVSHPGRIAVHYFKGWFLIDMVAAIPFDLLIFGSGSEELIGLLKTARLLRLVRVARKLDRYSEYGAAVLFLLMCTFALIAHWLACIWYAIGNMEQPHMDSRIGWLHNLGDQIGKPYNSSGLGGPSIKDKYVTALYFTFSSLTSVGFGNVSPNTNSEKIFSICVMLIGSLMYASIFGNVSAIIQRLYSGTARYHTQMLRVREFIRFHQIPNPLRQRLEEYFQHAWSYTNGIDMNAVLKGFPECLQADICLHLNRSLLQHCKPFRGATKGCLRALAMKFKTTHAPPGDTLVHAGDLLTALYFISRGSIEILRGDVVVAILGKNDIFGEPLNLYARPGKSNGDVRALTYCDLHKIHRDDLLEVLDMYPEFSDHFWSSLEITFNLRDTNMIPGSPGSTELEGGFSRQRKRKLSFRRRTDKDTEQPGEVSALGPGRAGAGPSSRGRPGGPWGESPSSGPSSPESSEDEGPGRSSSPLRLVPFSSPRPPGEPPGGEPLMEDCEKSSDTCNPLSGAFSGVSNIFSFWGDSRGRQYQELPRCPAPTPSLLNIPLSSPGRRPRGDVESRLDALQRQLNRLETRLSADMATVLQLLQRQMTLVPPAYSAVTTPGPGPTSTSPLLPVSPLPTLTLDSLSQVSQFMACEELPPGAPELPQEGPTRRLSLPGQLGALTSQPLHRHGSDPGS

T1 sequence (P08684 whole entry): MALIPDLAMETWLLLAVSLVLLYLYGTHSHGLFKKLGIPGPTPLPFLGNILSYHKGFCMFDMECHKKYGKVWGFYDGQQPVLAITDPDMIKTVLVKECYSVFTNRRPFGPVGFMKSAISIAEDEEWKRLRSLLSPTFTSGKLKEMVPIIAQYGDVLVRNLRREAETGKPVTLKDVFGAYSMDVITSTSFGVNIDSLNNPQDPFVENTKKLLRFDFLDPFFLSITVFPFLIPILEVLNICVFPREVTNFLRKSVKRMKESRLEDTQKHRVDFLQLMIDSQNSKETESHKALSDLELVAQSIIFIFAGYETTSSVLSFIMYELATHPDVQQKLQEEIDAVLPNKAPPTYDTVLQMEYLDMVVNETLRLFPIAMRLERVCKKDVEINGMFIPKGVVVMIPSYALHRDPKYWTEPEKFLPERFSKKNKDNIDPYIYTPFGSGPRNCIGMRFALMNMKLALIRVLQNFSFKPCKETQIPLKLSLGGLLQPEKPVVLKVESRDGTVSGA
T3 sequence (P33261 whole entry): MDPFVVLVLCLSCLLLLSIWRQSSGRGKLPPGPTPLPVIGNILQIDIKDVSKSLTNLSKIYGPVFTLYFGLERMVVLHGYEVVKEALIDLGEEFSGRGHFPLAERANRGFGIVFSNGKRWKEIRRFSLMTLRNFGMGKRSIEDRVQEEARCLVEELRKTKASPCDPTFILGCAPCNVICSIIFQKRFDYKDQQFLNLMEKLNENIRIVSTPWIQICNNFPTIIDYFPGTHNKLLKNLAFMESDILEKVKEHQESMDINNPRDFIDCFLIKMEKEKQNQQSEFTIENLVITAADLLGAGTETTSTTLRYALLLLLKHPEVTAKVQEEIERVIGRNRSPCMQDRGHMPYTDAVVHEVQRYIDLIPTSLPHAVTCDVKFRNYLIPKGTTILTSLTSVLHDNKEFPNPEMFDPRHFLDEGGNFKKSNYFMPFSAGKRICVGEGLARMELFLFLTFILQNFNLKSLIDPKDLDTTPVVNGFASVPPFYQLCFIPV
T4 sequence (P11712 whole entry): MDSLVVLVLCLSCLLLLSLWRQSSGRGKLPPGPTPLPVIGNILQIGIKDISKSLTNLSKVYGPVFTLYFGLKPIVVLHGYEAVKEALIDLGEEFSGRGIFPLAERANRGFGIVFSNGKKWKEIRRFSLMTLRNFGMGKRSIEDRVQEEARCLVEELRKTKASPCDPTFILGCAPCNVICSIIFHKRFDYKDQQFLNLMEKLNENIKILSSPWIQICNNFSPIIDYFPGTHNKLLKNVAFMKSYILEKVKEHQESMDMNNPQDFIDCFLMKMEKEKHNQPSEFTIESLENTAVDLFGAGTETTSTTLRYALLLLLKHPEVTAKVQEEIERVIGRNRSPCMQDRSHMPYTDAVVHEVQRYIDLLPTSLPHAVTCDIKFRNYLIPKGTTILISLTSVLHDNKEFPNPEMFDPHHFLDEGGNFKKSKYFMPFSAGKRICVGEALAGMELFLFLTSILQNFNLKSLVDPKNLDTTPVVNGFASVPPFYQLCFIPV
T2 sequence (P10635 whole entry): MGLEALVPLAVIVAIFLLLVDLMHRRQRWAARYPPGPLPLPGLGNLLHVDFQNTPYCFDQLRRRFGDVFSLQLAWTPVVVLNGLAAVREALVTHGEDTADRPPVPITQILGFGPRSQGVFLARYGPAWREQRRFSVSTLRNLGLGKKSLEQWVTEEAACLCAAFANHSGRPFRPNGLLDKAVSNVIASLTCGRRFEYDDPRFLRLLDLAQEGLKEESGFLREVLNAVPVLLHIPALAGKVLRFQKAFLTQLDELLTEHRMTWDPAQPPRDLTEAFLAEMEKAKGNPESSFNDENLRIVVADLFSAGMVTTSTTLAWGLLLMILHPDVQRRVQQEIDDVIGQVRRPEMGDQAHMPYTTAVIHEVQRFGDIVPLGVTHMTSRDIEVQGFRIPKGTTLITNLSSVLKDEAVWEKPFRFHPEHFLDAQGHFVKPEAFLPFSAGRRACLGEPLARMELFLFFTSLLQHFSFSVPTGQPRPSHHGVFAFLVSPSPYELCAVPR
Sequence of Cyclin-dependent kinase 1 (P06493 whole entry): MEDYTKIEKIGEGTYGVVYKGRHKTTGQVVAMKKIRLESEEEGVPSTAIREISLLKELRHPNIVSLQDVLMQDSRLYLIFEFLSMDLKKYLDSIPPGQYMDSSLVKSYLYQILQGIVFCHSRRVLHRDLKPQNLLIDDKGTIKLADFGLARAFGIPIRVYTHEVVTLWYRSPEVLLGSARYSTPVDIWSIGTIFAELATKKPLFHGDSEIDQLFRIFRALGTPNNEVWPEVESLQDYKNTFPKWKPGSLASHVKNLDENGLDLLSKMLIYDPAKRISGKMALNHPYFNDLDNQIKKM
Sequence of Cyclin-dependent kinase 9 (P50750 whole entry): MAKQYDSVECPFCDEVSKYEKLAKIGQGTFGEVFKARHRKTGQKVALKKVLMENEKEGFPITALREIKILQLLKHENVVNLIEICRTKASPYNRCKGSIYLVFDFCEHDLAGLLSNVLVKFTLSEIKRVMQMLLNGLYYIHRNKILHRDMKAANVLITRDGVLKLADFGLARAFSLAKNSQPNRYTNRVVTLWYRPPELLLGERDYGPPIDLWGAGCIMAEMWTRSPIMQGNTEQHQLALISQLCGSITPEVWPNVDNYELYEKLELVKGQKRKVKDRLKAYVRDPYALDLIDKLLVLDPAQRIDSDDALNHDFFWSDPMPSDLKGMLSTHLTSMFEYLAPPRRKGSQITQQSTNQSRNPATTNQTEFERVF

- IC50 [1]: 428 nM
- IC50 [2]: 267 nM
- IC50 [3]: 5.9 nM
- Ratio IC50 [4]: 72.5
- Ratio IC50 [5]: 45.2
- IC50 [6]: 53.4 nM
- solubility [7]: 1500 µg/mL (≈ 4.75 mM)
- Vd [8]: 10.2 L/kg
- clearance [9]: 115 mL/min/kg
- half-life [10]: 1.47 h
- AUC(0-t) [11]: 0.916 µM·h
- fraction unbound [18]: 0.711
- Papp A→B [19]: 0.82 ×10⁻⁶ cm/s
- Papp B→A [20]: 13.9 ×10⁻⁶ cm/s
- efflux ratio [21]: 17
- half-life [22]: > 4.66 h
- half-life [23]: 4.4 h
- half-life [24]: > 4.66 h
- half-life [25]: 3.71 h
- half-life [26]: 1.35 h
- IC50 [27]: > 100000 nM
- IC50 [28]: > 100000 nM
- IC50 [29]: 96200 nM
- IC50 [30]: > 100000 nM
- IC50 [31]: > 100000 nM
- IC50 [32]: > 100000 nM
- IC50 [33]: 44700 nM
- TDI [34]: Not_active
- TDI [35]: Not_active
- TDI [36]: Not_active
- TDI [37]: Not_active
- TDI [38]: Not_active
- TDI [39]: Not_active
- Activity [40]: Not_active
- Vd [42]: 11.2 L/kg
- Vd [43]: 7.62 L/kg
- clearance [44]: 52 mL/min/kg
- clearance [45]: 29.1 mL/min/kg
- half-life [46]: 3.2 h
- half-life [47]: 3.96 h
- AUC(0-t) [48]: 1250 ng·h/mL
- AUC(0-t) [49]: 568 ng·h/mL
Structure (SMILES): Cn1cc(-c2c(Cl)cnc3[nH]c(C4CCNCC4)cc23)cn1
- inhibition in vivo at 10 mg/kg [12]: 80%
- Activity [13]: Non-toxic
- Activity [14]: Dose-dependent-effect
- Activity [15]: Active
- Activity [16]: Active
- Activity [17]: Time-dependent-effect
- TGI [41]: Dose-dependent-effect; Partial Response Is Observed In 2/8 Mouse At 5 Mg/Kg Group, Partial Response Observed In 6/8 Mouse At 10 Mg/Kg And Partial Response Is Observed In 7/8 Mouse At 15 Mg/Kg Dose Group.
- inhibition (INH) [50]: Not_active

- Ratio IC50 [4]: 35.9
- Ratio IC50 [5]: 11.2
- IC50 [6]: 35.7 nM
Structure (SMILES): CN1CCC(c2cc3c(-c4cnn(CC5CC5)c4)c(Cl)cnc3[nH]2)CC1

- Ratio IC50 [4]: 107
- Ratio IC50 [5]: 41
- IC50 [6]: 52 nM
Structure (SMILES): COCC(C)N1CCC(c2cc3c(-c4cnn(CC5CC5)c4)c(Cl)cnc3[nH]2)CC1 (configuration not stated)

- Ratio IC50 [4]: 146
- Ratio IC50 [5]: 22.1
- IC50 [6]: 63.8 nM
Structure (SMILES): COCCN1CCC(c2cc3c(-c4cnn(CC5CC5)c4)c(Cl)cnc3[nH]2)CC1

- Ratio IC50 [4]: 11.5
- Ratio IC50 [5]: 14.5
- IC50 [6]: 14.7 nM
Structure (SMILES): Clc1cnc2[nH]c(C3CCNCC3)cc2c1-c1cnn(CC2CC2)c1
